From patent publication US20080108645A1, “Dihydrotetrabenazines And Pharmaceutical Compositions Containing Them” (CAMBRIDGE LABORATORIES, (IRELAND), LTD., priority 2004, published 2008)
“Also recorded” adds a separate entry of the source.

Columns and labels:
[1] = biological target: VMAT2 (Homo sapiens, UniProt Q05940); conditions: Erickson et al. (1996); cited from earlier work
[2] = system: Male Sprague-Dawley rats; assay: Spontaneous locomotor activity in rats (sedative properties); type: in vivo, rat
Procedure: A study was carried out in rats to determine whether the dihydrotetrabenazine isomers of the invention have sedative properties. The effects of the isomers on spontaneous locomotor activity in rats were compared with the effects produced by tetrabenazine and haloperidol using the methods set out below.
Male Sprague-Dawley rats, (Charles River Laboratories, Saint-Germain/L'Arbresle, France), weighing 200-250 g at the beginning of the study, were used for the studies. The rats were housed, 2 or 3 per cage, in Makrolon type III cages, in a room set up with the following environmental conditions: temperature: 20±2° C., humidity: minimum 45%, air changes: >12 per hour, light/dark cycle of 12 h/12 h [on at 7:00 a.m.]. The rats were allowed to acclimatize to their conditions for at least five days before commencement of the study. The rats received food (Dietex, Vigny, France, ref. 811002) and water (tap water in water bottle) ad libitum.
Solutions of each test compound in corn oil were freshly prepared on the day of the experiment. Haloperidol was prepared in hydroxyethylcellulose, 0.5% in deionized water. Either the vehicle or the test compounds were administered as a single dose (0.3, 1, 3 and 10 mg/kg, 2 mL/kg i.p.). The reference compound haloperidol (1 mg/kg) was administered i.p. (2 mL/kg).
The animals were placed in plexiglass cages under a video camera in a room with low light intensity (maximum 50 lux). At forty five minutes and 3 hours after administration, locomotor activity was determined during 20 minute periods using a video image analyzer (Videotrack, View Point, France). Locomotor activity was recorded in the reference group (haloperidol) at 1 hour after administration. The number and duration of ambulatory movements and duration of inactivity was measured. At the end of the locomotor activity measurement (45 minutes and 3 hours), palpebral closure and arousal were be scored as follows in the plexiglass cage:
The number of occurrences and duration (in seconds) of ambulatory (large) movements and the duration of periods of inactivity (seconds) was determined during two 20 minute periods (45 minutes and 3 hours after administration) using a video image analyzer (Videotrack, ViewPoint, Lyon, France). Image tracking was performed using a video camera placed above the plexiglass cage, recording overall locomotor activity. Images recorded with the video camera were digitalized and displacement of the centre of gravity of the digital image spots was tracked and analyzed using the following method: the speed of displacement of the centre of gravity of the spot was measured and two threshold values were set to define the type of movement: threshold 1 (high speed) and threshold 2 (low speed). When the animal moved and the speed of displacement of the centre of gravity of the spot was above threshold 1, the movement was considered as an ambulatory movement.
The results were expressed as the means±SEMs of the 12 individual values. Statistical analyses were carried out using ANOVA (one way) and Dunnett's t-test and with the non parametric test of Kruskal-Wallis followed by a Mann & Whitney U-test for the sedation cotation. A p value of p<0.05 was taken as indicating significance.

[3] = biological target: T1, Dopamine D2L Receptor (Homo sapiens, UniProt P14416); assay: Dopamine D2L receptor radioligand binding; conditions: 10 μM; 0.16 nM [3H] Spiperone
T1 construct: expressed in transfected cells; host or cells: CHO cells
T1 sequence (P14416 whole entry): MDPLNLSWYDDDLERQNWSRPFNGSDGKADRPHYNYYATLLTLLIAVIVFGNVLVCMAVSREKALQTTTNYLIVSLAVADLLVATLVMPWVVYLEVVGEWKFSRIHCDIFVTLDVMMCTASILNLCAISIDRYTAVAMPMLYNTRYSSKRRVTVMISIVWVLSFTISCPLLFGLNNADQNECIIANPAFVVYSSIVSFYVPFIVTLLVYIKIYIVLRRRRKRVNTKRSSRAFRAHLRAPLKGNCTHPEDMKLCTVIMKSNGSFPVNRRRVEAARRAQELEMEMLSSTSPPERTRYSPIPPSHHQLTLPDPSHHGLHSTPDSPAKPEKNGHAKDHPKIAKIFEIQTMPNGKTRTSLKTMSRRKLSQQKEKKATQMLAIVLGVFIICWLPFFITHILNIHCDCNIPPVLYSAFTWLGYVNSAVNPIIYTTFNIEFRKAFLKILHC
Procedure: (§1) (a) Adrenergic α2A Receptor: • Reference: S. Uhlen et al. J. Pharmacol. Exp. Ther., 271:1558-1565 (1994) • Source: Human recombinant insect Sf9 cells • Ligand: 1 nM [^3H] […] J. Pharmacol., 99:803-809, (1990) • Source: Wistar rat cerebral cortex • Ligand: 2 nM [3H]

[4] = biological target: T2, Serotonin Transporter (SERT) (Homo sapiens, UniProt P31645); assay: Serotonin transporter (SERT) radioligand binding; conditions: 10 μM; 0.15 nM [125I] RTI-55
T2 construct: expressed in transfected cells; host or cells: HEK-293 cells
T2 sequence (P31645 whole entry): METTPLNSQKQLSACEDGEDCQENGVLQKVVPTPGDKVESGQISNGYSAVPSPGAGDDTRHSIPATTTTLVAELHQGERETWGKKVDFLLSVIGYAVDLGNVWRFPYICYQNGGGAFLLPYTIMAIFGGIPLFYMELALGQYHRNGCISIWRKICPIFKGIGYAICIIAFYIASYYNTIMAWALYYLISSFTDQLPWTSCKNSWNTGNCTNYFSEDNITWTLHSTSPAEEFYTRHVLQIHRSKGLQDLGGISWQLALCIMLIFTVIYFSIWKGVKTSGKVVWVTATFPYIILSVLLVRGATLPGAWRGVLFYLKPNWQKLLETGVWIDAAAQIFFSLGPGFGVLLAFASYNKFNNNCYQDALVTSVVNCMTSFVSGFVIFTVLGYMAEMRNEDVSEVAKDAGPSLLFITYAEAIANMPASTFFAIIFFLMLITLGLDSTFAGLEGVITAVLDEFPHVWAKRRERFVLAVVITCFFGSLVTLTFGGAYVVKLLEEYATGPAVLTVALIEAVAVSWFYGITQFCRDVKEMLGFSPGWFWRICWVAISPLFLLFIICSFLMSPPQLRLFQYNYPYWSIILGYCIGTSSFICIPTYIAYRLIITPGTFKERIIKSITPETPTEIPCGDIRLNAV
Procedure: as §1

[5] = biological target: T3, Dopamine D1 Receptor (Homo sapiens, UniProt P21728); assay: Dopamine D1 receptor radioligand binding; conditions: 10 μM; 1.4 nM [3H] SCH-23390
T3 construct: expressed in transfected cells; host or cells: CHO cells
T3 sequence (P21728 whole entry): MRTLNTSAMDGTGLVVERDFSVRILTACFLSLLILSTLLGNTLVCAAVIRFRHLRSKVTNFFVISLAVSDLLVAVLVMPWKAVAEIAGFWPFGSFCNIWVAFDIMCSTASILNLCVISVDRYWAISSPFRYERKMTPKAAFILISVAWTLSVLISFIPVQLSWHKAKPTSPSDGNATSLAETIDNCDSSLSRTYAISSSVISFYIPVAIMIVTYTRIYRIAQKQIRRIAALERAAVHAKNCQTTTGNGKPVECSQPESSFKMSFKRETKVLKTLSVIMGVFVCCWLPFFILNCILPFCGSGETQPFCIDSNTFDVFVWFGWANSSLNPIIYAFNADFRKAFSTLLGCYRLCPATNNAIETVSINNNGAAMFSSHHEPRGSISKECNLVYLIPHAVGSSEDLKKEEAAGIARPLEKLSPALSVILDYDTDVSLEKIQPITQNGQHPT
Procedure: as §1

[6] = system: Imidazoline I2 (Central) Receptor; assay: Imidazoline I2 (central) receptor radioligand binding; parameters: species or system Wistar rat; conditions: 10 μM; 2 nM [3H] Idazoxan
Procedure: as §1

[7] = biological target: T4, Dopamine D3 Receptor (Homo sapiens, UniProt P35462); assay: Dopamine D3 receptor radioligand binding; conditions: 10 μM; 0.7 nM [3H] Spiperone
T4 construct: expressed in transfected cells; host or cells: CHO cells
T4 sequence (P35462 whole entry): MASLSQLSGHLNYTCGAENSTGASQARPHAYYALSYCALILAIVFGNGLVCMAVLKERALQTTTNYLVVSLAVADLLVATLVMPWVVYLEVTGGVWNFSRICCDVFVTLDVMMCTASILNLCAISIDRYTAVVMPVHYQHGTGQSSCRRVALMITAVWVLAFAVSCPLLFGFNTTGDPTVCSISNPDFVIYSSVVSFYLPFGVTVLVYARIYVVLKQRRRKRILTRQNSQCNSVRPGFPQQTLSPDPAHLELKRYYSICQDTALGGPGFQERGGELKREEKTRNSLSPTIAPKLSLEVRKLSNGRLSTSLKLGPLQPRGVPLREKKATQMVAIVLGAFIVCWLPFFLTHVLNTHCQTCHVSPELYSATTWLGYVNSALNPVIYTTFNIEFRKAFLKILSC
Procedure: as §1

[8] = biological target: T5, Adrenergic α2A Receptor (Homo sapiens, UniProt P08913); assay: Adrenergic α2A receptor radioligand binding; conditions: 10 μM; 1 nM [3H] MK-912
T5 construct: expressed in transfected cells; host or cells: insect Sf9 cells
T5 sequence (P08913 1-465): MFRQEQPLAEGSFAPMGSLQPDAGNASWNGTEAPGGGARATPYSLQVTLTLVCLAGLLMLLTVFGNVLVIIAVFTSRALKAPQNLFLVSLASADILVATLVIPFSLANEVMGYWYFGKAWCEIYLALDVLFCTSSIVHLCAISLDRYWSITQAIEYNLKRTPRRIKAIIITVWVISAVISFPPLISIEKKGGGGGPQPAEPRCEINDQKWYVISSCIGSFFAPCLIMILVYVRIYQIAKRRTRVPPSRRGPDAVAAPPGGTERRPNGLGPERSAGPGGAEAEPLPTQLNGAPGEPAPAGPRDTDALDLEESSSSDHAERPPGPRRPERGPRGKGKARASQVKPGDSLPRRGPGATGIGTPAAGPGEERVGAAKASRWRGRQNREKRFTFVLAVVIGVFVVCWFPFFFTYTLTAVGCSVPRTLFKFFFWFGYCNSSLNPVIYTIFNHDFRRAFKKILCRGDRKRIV
Procedure: as §1

[9] = biological target: T6, Adrenergic α2B Receptor (Homo sapiens, UniProt P18089); assay: Adrenergic α2B receptor radioligand binding; conditions: 10 μM; 2.5 nM [3H] Rauwolscine
T6 construct: expressed in transfected cells; host or cells: CHO-K1 cells
T6 sequence (P18089 1-450): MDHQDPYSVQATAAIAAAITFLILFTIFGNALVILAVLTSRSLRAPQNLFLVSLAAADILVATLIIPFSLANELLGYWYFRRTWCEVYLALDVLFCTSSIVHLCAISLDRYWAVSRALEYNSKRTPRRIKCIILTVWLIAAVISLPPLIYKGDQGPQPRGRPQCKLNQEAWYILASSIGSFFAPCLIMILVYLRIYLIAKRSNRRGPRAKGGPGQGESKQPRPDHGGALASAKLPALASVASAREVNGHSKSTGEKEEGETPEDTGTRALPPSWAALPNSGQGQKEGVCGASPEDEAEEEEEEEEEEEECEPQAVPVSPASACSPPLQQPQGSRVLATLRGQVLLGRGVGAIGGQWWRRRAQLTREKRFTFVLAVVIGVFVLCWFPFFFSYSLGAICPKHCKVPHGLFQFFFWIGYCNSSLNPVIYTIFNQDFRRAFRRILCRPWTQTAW
Procedure: as §1

[10] = system: Caco-2 monolayer; conditions: for Recovery: human, Caco-2, 1 h, 50 μM, pH 7.4
Text: (§2) The assay relies on the ability of Caco-2 cells to differentiate into enterocytes when cultured on a microporous filter for a period of approximately 21 days. During the culture period, the Caco-2 cells undergo spontaneous morphological and biochemical changes, which produce a polarized monolayer with a well-defined brush border on the apical surface, as well as tight cellular junctions. Therefore, these cells may be used as an in vitro model for the analysis of drug permeability.
(§3) Absorption across the Caco-2 monolayer can be measured in two directions: apical-to-basolateral or basolateral-to-apical, by adding the compound to the apical or the basolateral chamber, respectively. At various time-points, samples are collected from the receiver-chamber for analysis for the rate of absorption as measured by the apparent permeability coefficient (Papp) across the monolayer.
(§4) The Papp value reflects a combination of the test article permeability through both transcellular (through cell membranes) and the paracellular (across the tight junctions between the cells) pathways. The relative contribution of these pathways depends upon the pKa, partition coefficient (log D), molecular radius, and charge of the test article at a given pH. Papp values can then be used to rank-order compounds for their permeability through Caco-2 monolayers.
(§5) Absorption was determined at pH 7.4 across cell monolayers in the apical-to-basolateral direction. Caco-2 cells used to estimate Papp values were grown for 26 days on Transwell inserts in 12-well plates. Monolayer integrity was verified before and after the absorption assay by the methods of transepithelial electrical resistance (Ohm-cm^2) and Lucifer Yellow.
(§6) On the day of the assay, the reference standards were diluted in Hank's balanced salt solution (HBSS), pH 7.4 to a final concentration of 50 μM. […] Dihydrotetrabenazine isomer samples were prepared at a concentration of 50 mM in DMSO. Each stock solution was further diluted in HBSS buffer (pH 7.4) to a final working concentration of 50 μM
(§7) The Caco-2 cell suspensions were prepared as follows. […] Once the cell density and viability were determined, Caco-2 cells were diluted in culture medium to a final working concentration of 2.0×10^5 cells/ml. The Caco-2 culture medium contained Dulbecco's Modified Eagle Medium, 10% fetal bovine serum, 100 μM non-essential amino acids, 100 U/ml penicillin and 100 μg/ml streptomycin.
(§8) Costar polycarbonate membranes (0.4 μm pore size) were pre-equilibrated with Caco-2 culture medium for 1 hour in a 37° C. water-jacketed incubator with 5% CO2. The content of the apical chamber was removed and replaced with 500 μl of Caco-2 cell suspension (200 000 cells/ml). Cells were further maintained in culture for 26 days in a 37° C. water-jacketed incubator with 5% CO2.
(§9) Prior to the assay, all monolayers were washed twice with HBSS and their transepithelial electrical resistance (TEER) was measured with a Millicell-ERS meter. TEER values obtained in the absence of cells were subtracted as background signal. Only monolayer with TEER values over 150 Ohm-cm^2 were used for the absorption assay experiment.
(§10) All absorption experiments were conducted in triplicate at pH 7.4. The rate of absorption of each reference standard and dihydrotetrabenazine test article was assessed in the apical-to-basolateral direction. Aliquots (100 μl) of each working solution (reference standards and test articles at 50 μM) were set aside at the beginning of the assay for the determination of the initial concentration (Co).
(§11) Absorption experiments were initiated by replacing the content of the donor chamber with 500 μl of Hanks Balanced Salt Solution containing test articles or reference compounds. Cells were returned to the CO2 incubator for the absorption assay. Samples of 100 μl were collected from the receiver and donor chambers after 1 hour and were used to determine the percentage of recovery.

[11] = biological target: T7, Sigma σ1 Receptor (Homo sapiens, UniProt Q99720); assay: Sigma σ1 receptor radioligand binding; conditions: 10 μM; 8 nM [3H] Haloperidol
T7 construct: Source: Human jurkat cells; endogenous in cells; host or cells: Jurkat cells
T7 sequence (Q99720 whole entry): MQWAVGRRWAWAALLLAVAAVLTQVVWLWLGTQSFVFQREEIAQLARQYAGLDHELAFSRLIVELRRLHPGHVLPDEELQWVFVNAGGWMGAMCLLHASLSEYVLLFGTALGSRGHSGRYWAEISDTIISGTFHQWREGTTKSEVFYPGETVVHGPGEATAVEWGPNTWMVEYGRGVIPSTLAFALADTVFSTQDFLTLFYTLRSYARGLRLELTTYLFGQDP
Procedure: as §1

[12] = biological target: T8, Sigma σ2 Receptor (Rattus norvegicus, UniProt Q5U3Y7); assay: Sigma σ2 receptor radioligand binding; parameters: species or system Wistar rat; conditions: 3 nM [3H] Ifenprodil
T8 construct: Source: Wistar rat brain; from tissue; host or cells: Wistar rat brain
T8 sequence (Q5U3Y7 1-176): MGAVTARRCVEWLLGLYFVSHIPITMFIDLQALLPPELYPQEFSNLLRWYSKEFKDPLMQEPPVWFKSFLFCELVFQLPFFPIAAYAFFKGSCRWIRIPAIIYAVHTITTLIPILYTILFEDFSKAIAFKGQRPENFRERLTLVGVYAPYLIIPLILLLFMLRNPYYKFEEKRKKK
Procedure: as §1

[13] = biological target: T9, Dopamine Transporter (DAT) (Homo sapiens, UniProt Q01959); assay: Dopamine transporter (DAT) radioligand binding; conditions: 10 μM, 0.15 nM [125I] RTI-55
T9 construct: expressed in transfected cells; host or cells: CHO cells
T9 sequence (Q01959 whole entry): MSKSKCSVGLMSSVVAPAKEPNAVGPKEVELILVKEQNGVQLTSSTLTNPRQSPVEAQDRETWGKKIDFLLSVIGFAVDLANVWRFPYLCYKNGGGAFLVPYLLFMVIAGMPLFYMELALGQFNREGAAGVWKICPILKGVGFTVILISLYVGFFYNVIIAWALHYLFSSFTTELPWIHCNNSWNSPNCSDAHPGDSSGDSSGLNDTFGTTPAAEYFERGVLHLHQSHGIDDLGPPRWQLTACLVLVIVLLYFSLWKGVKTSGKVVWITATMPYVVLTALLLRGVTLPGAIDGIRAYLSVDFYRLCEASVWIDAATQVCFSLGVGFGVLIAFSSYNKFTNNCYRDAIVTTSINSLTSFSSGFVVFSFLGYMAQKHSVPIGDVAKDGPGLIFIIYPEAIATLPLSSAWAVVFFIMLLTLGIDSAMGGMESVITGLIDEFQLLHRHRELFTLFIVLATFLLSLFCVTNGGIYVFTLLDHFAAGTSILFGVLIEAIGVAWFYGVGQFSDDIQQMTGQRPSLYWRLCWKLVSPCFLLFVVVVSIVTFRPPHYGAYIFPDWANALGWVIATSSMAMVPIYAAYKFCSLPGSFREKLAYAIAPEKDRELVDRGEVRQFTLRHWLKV
Procedure: as §1

[14] = in vitro; conditions: human, Caco-2, pH 7.4
Text: as §2, §3, §4, §5, §6, §7, §8, §9, §10, §11

[15] = 0.3 mg/kg i.p., 45 minutes after administration
[16] = 0.3 mg/kg i.p., 3 hours after administration
[17] = 1 mg/kg i.p., 45 minutes after administration
[18] = 1 mg/kg i.p., 3 hours after administration
[19] = 3 mg/kg i.p., 45 minutes after administration
[20] = 3 mg/kg i.p., 3 hours after administration
[21] = 10 mg/kg i.p., 45 minutes after administration
[22] = 10 mg/kg i.p., 3 hours after administration

VMAT2, sequence (Q05940 whole entry): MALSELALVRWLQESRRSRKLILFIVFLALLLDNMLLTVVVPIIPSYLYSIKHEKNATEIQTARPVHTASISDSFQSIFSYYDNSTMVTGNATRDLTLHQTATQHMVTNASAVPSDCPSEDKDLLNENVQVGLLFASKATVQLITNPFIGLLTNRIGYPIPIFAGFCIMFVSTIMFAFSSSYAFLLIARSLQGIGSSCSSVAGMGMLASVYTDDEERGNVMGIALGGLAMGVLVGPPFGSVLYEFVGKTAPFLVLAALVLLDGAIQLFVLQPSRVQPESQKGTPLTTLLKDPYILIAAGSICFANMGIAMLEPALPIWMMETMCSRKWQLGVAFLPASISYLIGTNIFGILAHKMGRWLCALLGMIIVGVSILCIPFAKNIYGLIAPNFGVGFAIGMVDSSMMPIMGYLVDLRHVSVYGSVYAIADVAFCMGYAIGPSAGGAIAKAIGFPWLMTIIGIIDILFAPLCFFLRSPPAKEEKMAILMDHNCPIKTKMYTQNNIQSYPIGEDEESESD

SMILES: COc1cc2c(cc1OC)C1CC(=O)C(CC(C)C)CN1CC2 (racemic) [Tetrabenazine, 1,3,4,6,7,11b-hexahydro-9,10-dimethoxy-3-(2-methylpropyl)-2H-benzo(a)quinolizin-2-one]
- affinity for VMAT2 in comparison to VMAT1 [1]: ≥ 200 fold
- Inactivity Duration [2, 15]: 390.4 ± 37.4 s
- Large movements Duration [2, 15]: 66.8 ± 10.7 s
- Large movements Occurrence [2, 15]: 253 ± 32
- Inactivity Duration [2, 16]: 545.9 ± 37.1 s
- Large movements Duration [2, 16]: 24.3 ± 4.2 s
- Large movements Occurrence [2, 16]: 96 ± 14
- Inactivity Duration [2, 17]: 456.5 ± 50.5 s
- Large movements Duration [2, 17]: 46.5 ± 8.6 s
- Large movements Occurrence [2, 17]: 189 ± 32
- Inactivity Duration [2, 18]: 556.9 ± 31.1 s
- Large movements Duration [2, 18]: 21.5 ± 4.0 s
- Large movements Occurrence [2, 18]: 90 ± 16
- Inactivity Duration [2, 19]: 697.8 ± 39.7 s
- Large movements Duration [2, 19]: 8.7 ± 5.9 s
- Large movements Occurrence [2, 19]: 38 ± 25
- Inactivity Duration [2, 20]: 729.9 ± 26.8 s
- Large movements Duration [2, 20]: 1.7 ± 0.9 s
- Large movements Occurrence [2, 20]: 9 ± 4
- Inactivity Duration [2, 21]: 723.1 ± 46.5 s
- Large movements Duration [2, 21]: 0.2 ± 0.2 s
- Large movements Occurrence [2, 21]: 1 ± 1
- Inactivity Duration [2, 22]: 762.1 ± 40.7 s
- Large movements Duration [2, 22]: 0.6 ± 0.3 s
- Large movements Occurrence [2, 22]: 3 ± 1
- sedative effect (in words) ([2]; 0.3-10 mg/kg i.p., 45 minutes and 3 hours after administration): dose-dependent sedative effect; also recorded: dose related sedative effect

SMILES: COc1cc2c(cc1OC)[C@H]1C[C@H](O)[C@@H](CC(C)C)CN1CC2 (single isomer, unassigned) [Isomer A, 3,11b-cis-dihydrotetrabenazine]
- Percentage Inhibition of Specific Binding, D2L Receptor [3]: 87%
- Percentage Inhibition of Specific Binding, SERT [4]: 19%
- Percentage Inhibition of Specific Binding, D1 Receptor [5]: 78%
- Percentage Inhibition of Specific Binding, I2 Receptor [6]: 74%
- Percentage Inhibition of Specific Binding, D3 Receptor [7]: 69%
- Percentage Inhibition of Specific Binding, α2A Receptor [8]: 86%
- Percentage Inhibition of Specific Binding, α2B Receptor [9]: 44%
- permeability in the Caco-2 model (in words) [10]: high permeability
- Recovery [10]: 106.8 ± 7.9%
- Percentage Inhibition of Specific Binding, σ1 Receptor [11]: 48%
- inhibition at 10 µM ([12]; read-out: Percentage Inhibition of Specific Binding, σ2 Receptor): 64%
- inhibition at 10 µM ([13]; read-out: Percentage Inhibition of Specific Binding, DAT): 3%

SMILES: COc1cc2c(cc1OC)[C@H]1C[C@@H](O)[C@@H](CC(C)C)CN1CC2 (single isomer, unassigned) [Isomer D, 3,11b-cis-dihydrotetrabenazine]
- Percentage Inhibition of Specific Binding, D2L Receptor [3]: 58%
- Percentage Inhibition of Specific Binding, SERT [4]: 8%
- Percentage Inhibition of Specific Binding, D1 Receptor [5]: 38%
- Percentage Inhibition of Specific Binding, I2 Receptor [6]: 55%
- Percentage Inhibition of Specific Binding, D3 Receptor [7]: 63%
- Percentage Inhibition of Specific Binding, α2A Receptor [8]: 87%
- Percentage Inhibition of Specific Binding, α2B Receptor [9]: 50%
- permeability in the Caco-2 model (in words) [10]: high permeability
- Recovery [10]: 106.5 ± 23.8%
- Percentage Inhibition of Specific Binding, σ1 Receptor [11]: 82%
- Percentage Inhibition of Specific Binding, σ2 Receptor ([12]; 10 μM): 69%
- Percentage Inhibition of Specific Binding, DAT [13]: 2%

SMILES: O=C(CCCN1CCC(O)(c2ccc(Cl)cc2)CC1)c1ccc(F)cc1 [Haloperidol, reference compound]
- Inactivity Duration [2, 17]: 637.2 ± 60.1 s
- Large movements Duration [2, 17]: 14.8 ± 8.5 s
- Large movements Occurrence [2, 17]: 58 ± 33
- Inactivity Duration [2, 18]: 723.6 ± 50.2 s
- Large movements Duration [2, 18]: 2.2 ± 2.0 s
- Large movements Occurrence [2, 18]: 9 ± 8

SMILES: OC[C@@H](O)[C@@H](O)[C@H](O)[C@H](O)CO [Mannitol]
- Papp A→B at 1 h, 50 μM [14]: 1.18 ± 0.14 ×10⁻⁶ cm/s
- recovery at 1 h, 50 μM [14]: 97.1 ± 0.3%

SMILES: O=C(O)c1ccccc1O [Salicylic Acid]
- Papp A→B at 1 h, 50 μM [14]: 8.91 ± 8.14 ×10⁻⁶ cm/s
- recovery at 1 h, 50 μM [14]: 91.5 ± 11.4%

SMILES: C[C@]12CC[C@H]3[C@@H](CCC4=CC(=O)CC[C@@]43C)[C@@H]1CC[C@@H]2O [Testosterone]
- recovery at 1 h, 50 μM [14]: 105 ± 10.6%
